Test results from PMC10620940 (ACS Omega, 2023).
Like-named read-outs stand apart in the source and are kept apart here.

Columns and labels:
SARS-CoV-2 [1] = settings: cited from earlier work
SARS-CoV-2 [2] = settings: SARS-CoV-2-infected mice; cited from earlier work
SARS-CoV-2 PL^pro = settings: in vitro SARS-CoV-2 PL^pro; cited from earlier work
in vitro = settings: human, CC50, U2-OS ACE2 GFP cells
SARS-CoV-2 [3] = settings: A549 + ACE2 cells, pretreatment; cited from earlier work
[4] = tested on: SARS-CoV-2 strain BetaCoV/France/IDF0372/2020; assay: microbe, parasite or virus in culture; settings: Severe acute respiratory syndrome coronavirus 2, U2OS

SMILES: CCC(CC)COC(=O)[C@H](C)N[P@](=O)(OC[C@H]1O[C@@](C#N)(c2ccc3c(N)ncnn23)[C@H](O)[C@@H]1O)Oc1ccccc1 [remdesivir]
- IC50 (SARS-CoV-2 [1]): 20 to 50 nM

SMILES: COc1ccc2nc3cc(Cl)ccc3c(Nc3cc(CN4CCCC4)c(O)c(CN4CCCC4)c3)c2n1 [7g, pyronaridine]
- viral load in the lungs (SARS-CoV-2 [2]): reduces viral load
- IC50 (SARS-CoV-2 PL^pro): 1800 nM
- CC50 (in vitro): 4700 nM
- IC50 (SARS-CoV-2 [3]): 230 nM
- IC50 [4]: 420 nM

SMILES: CCN(CC)CCCC(C)Nc1c2ccc(Cl)cc2nc2ccc(OC)cc12 (centres unmarked) [quinacrine]
- IC50 (SARS-CoV-2 [3]): 190 nM
- IC50 [4]: 2570 nM
